≈ marks a conversion by molar mass, not a printed value. Bridge positions count the residues as written; N and C are the ends. Peptide text beside a SMILES is read from it.
Tests used:
Assay type in all cases: cell-based, Cutibacterium acnes
C. acnes HL013PA1 = details: C. acnes HL013PA1; RCM broth, anaerobic, 1 × 10^6 CFU per mL, two-fold dilutions 0.5–32 μg/mL, 48 h, OD 600 nm; mean of three replicates
Method in brief: (§1)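 Growth inhibition of anaerobic C. acnes in RCM, 48 h, 1 × 10^6 CFU per mL inoculum; range 0.5–32 μg per mL; OD600nm end-point for MIC, triplicate wells.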

C. acnes HL038PA1 = details: C. acnes HL038PA1; RCM broth, anaerobic, 1 × 10^6 CFU per mL, two-fold dilutions 0.5–32 μg/mL, 48 h, OD 600 nm; mean of three replicates
Method in brief: as §1

C. acnes HL043PA1 = details: C. acnes HL043PA1; RCM broth, anaerobic, 1 × 10^6 CFU per mL, two-fold dilutions 0.5–32 μg/mL, 48 h, OD 600 nm; mean of three replicates
Method in brief: as §1

C. acnes HL043PA2 = C. acnes HL043PA2 (multi-drug resistant); RCM broth, anaerobic, 1 × 10^6 CFU per mL, two-fold dilutions 0.5–32 μg/mL, 48 h, OD 600 nm; mean of three replicates
Method in brief: as §1

C. acnes HL045PA1 = details: C. acnes HL045PA1; RCM broth, anaerobic, 1 × 10^6 CFU per mL, two-fold dilutions 0.5–32 μg/mL, 48 h, OD 600 nm; mean of three replicates
Method in brief: as §1

C. acnes HL056PA1 = details: C. acnes HL056PA1; RCM broth, anaerobic, 1 × 10^6 CFU per mL, two-fold dilutions 0.5–32 μg/mL, 48 h, OD 600 nm; mean of three replicates
Method in brief: as §1

[1] = system: ten C. acnes clinical isolates and two C. acnes ATCC reference strains
Method in brief: as §1

## CC[C@H](C)[C@@H]1NC(=O)CNC(=O)[C@H](CCCCN)NC(=O)[C@H](Cc2ccc(O)cc2)NC(=O)[C@@H]2CSSC[C@H](NC1=O)C(=O)N[C@@H](Cc1ccc(O)cc1)C(=O)N[C@@H](CCCCN)C(=O)N[C@@H](CCCCN)C(=O)N[C@H](C(=O)N[C@@H](CCCCN)C(N)=O)CSSC[C@H](NC(=O)[C@H](Cc1c[nH]c3ccccc13)NC(=O)[C@@H](N)CCCNC(=N)N)C(=O)N[C@@H](Cc1ccccc1)C(=O)N[C@@H](CCCCN)C(=O)N[C@@H](C(C)C)C(=O)N2 [RP556] (H-RWCFKVCYKGICYKKCK-NH2; disulfide 3-16, 7-12)
C. acnes HL013PA1
  MIC: 2 mg/L (≈ 0.929 µM)
C. acnes HL038PA1
  MIC: 4 mg/L (≈ 1.86 µM)
C. acnes HL043PA1
  MIC: 4 mg/L (≈ 1.86 µM)
C. acnes HL043PA2
  MIC: 4 mg/L (≈ 1.86 µM)
C. acnes HL045PA1
  MIC: 4 mg/L (≈ 1.86 µM)
C. acnes HL056PA1
  MIC: 2 mg/L (≈ 0.929 µM)
[1]; 0.5–32 μg/mL concentration range evaluated
  in vitro anti-bacterial activity against the C. acnes bacterial strains (in words): most active
[1]; span over ten antibiotic resistant isolates and two ATCC reference strains
  MIC values against all C. acnes isolates: 2 to 8 mg/L
